Values quoted from earlier work as cited in patent US20150045434A1, “METHIONINE COMPOUND INTENDED FOR ANIMAL FEED” (ROQUETTE FRERES, priority 2011, published 2015).

Experiments:
[1] = at 35° C.

CSCC[C@H](N)C(=O)O [methionine]
solubility of methionine [1]: about 70 g/l | pKa1 (pKa of the acid function of methionine) (acid function): 2.2 | pKa2 (pKa of the amine function of methionine) (amine function): 9.3
